What was measured:
IL-1Ra = experiment: Expression index of IL-1Ra mRNA in illuminated colon, quantitative real-time PCR; assay type: in vivo, BALB/c mice
From the text: (§1) The third portion was used for measuring the expression of the molecules involved in immune and inflammatory phenomenons in the colonic mucosa (cytokines, chemokines). For RNA extraction this portion was conserved in RNA-later solution (Ambion Inc. Austin, USA) until processing. RNA was extracted from the tissues using a Rneasy Mini kit (Qiagen, Hombrechtikon, Switzerland). RNA samples were submitted to a second or third DNAse treatment in order to get rid of all traces of genomic DNA. Quality of the RNA samples was tested on agarose gels and absence of genomic DNA was tested by PCR using primers specific for a house keeping gene, glyceraldehydes-3-phosphate-dehydrogenase (GAPDH). RNA preparations were then submitted to reverse transcription using the ThermoScript™ RT-PCR system (Invitrogen, Basel, Switzerland) using an Oligo-dT as primer. Quantification of reverse transcripted messenger RNA for GAPDH, the inducible nitric oxide synthetase (iNOS), interferon-gamma (IFN-γ), interleukin-1 receptor antagonist (IL1-Ra), tumor necrosis factor alpha (TNF-α), interleukin 6 (IL-6), tumor growth factor beta (TGF-13) and interleukin10 (IL-10) was performed by quantitative real-time PCR in a BioRad Real-time PCR iCycler using specific pairs of primers and the green fluorescence dye SYBR—Green®. GAPDH was used to normalize quantifications within each individual sample (normalization of the number of mRNA copies for the gene of interest/1 million mRNA copies of the GAPDH gene of the investigated mouse). Expression of each gene of interest was finally calculated as an expression index (normalized number of mRNA copies of each manipulated mice/normalized number of mRNA copies of the unmanipulated mice) and the results are given as mean values of the expression index (unmanipulated mean mice index=1). Furthermore one kidney and a part of the liver were collected for pathological analysis to exclude hepato- or nephrotoxicity.

[1] = test system: SCID mice with colitis induced by transfer of CD4+CD45RBhigh T-cells; experiment: PDT in CD4+CD45RBhigh transfer colitis, clinical and endoscopic follow-up (Example 1); assay type: in vivo
Method: b) A rigid mini-endoscope Hopkins I (vision direct 0°, length 10 cm, diameter 1.9 mm, Anklin, Binningen, Switzerland) with a 9 Charrière (Ch) tube and a channel for instrumentation (Flexible biopsy forceps Ch 3, 53 cm length) coupled on the Coloview Basic equipment (light source Xenon 175 and Endovision Telecam SLB; Storz Inc, Tuttlingen, Germany) and the home made air inflation system (see above). […] First the colonoscopy technique was optimised in 10 wild type BALB/c mice and 10 SCID mice, which were colonoscoped repeatedly (3 times within a 2 weeks time period). Afterwards the accuracy of colonoscopy in diagnosis colitis was evaluated in BALB/c mice with sodium dextran sulfate (DSS) induced colitis and in SCID mice with colitis induced by transfer of a subpopulation of CD4+CD45RBhigh T-cells. For this purpose the mice were colonoscoped at diverse time points after onset of DSS administration or T-cell transfer and the endosocpic image was compared with the endoscopic image of normal mice and the histology after sacrificing the mice.
To induce CD4+ CD45RBhigh transfer colitis, T cells used for the adoptive transfer of the SCID mice were obtained from the spleens of six weeks old wild type BALB/c mice that were housed under specific pathogen-free (SPF) conditions at our animal care facility. Mice were sacrificed by cervical dislocation under anesthesia and spleen were recovered and kept in cold RPMI 1640 medium complemented with a final concentration of 2% fetal calf serum (FCS) until processing. The tissue was forced through 70 μm and 40 μm nylon meshes and washed. Spleen cells were then centrifugated and the pellet was resuspended in 5 ml of cold medium for counting. The cellular preparation was then enriched in CD4+ cells by magnetic cell sorting using CD4 (L3T4) MACS microbeads (Miltenyi Biotec, Gladbach, Germany). The enriched cells were then stained using fluorescein isothiocynate (FITC)-conjugated anti-CD4 and phyoerythrin (PE)—conjugated anti-CD45RB monoclonal antibodies (BD, Biosciences Pharmingen, San Diego, USA). CD4+CD45RB high cells were sorted by FACS, resuspended in PBS at the concentration of 10^6 cells/ml and finally 10^5 cells were injected intravenously under sterile conditions into 4-6 weeks old SCID mice.
Colonoscopy could safely be performed in normal BALB/c mice and SCID mice. The mouse colon could be intubated up to the right flexure. The length of the accessible mouse colon was approximately 4 cm with the rectum comprised. In DSS induced colitis a correlation between colitis and weight loss was observed, whereas in SCID mice with colitis after CD4+CD45RB^high T-cell transfer, endoscopic signs of colitis developed earlier as weight loss and the correlation between endoscopic signs of colitis and weight loss was less good. The colitis in DSS mice was segmental, the rectum was always spared, erythema, ulcerations, changes of the normal vascular pattern could be observed. […] Furthermore, since the length of the accessible mouse colon was only about 4 cm, they changed their scoring system concerning the length.

[2] = Safety of colonoscopy and low/high dose PDT in wild type BALB/c mice
IFN-γ [3] = experiment: IFN-γ expression index in colon of transfer colitis SCID mice (FIG. 2); assay type: in vivo
Method: FIG. 2 represents the expression indices of the proinflammatory markers IFN-γ and TNF-α in untransfered mice, disease control group and PDT group (15 mg/kg of δ-ALA, 10 J/cm^2).
Typically, the expression index of each pro-inflammatory marker of interest is calculated (normalized number of mRNA copies of each manipulated mice/normalized number of mRNA copies of the unmanipulated mice). The results are given as mean values of the expression index (unmanipulated mean mice index=1). […]
The third portion was used for measuring the expression of the molecules involved in immune and inflammatory phenomenons in the colonic mucosa (cytokines, chemokines). […] Quantification of reverse transcripted messenger RNA for GAPDH, the inducible nitric oxide synthetase (iNOS), interferon-gamma (IFN-γ), interleukin-1 receptor antagonist (IL1-Ra), tumor necrosis factor alpha (TNF-α), interleukin 6 (IL-6), tumor growth factor beta (TGF-13) and interleukin10 (IL-10) was performed by quantitative real-time PCR in a BioRad Real-time PCR iCycler using specific pairs of primers and the green fluorescence dye SYBR—Green®. GAPDH was used to normalize quantifications within each individual sample (normalization of the number of mRNA copies for the gene of interest/1 million mRNA copies of the GAPDH gene of the investigated mouse). […]

IFN-γ [4] = experiment: Expression index of IFN-γ mRNA in illuminated colon, quantitative real-time PCR; assay type: in vivo, BALB/c mice
From the text: as §1

[5] = high dose PDT: 50 J/cm^2, 60 mg δ-ALA, 74 h, unmanipulated mice index=1
[6] = low dose PDT 15 mg/kg δ-ALA, 10 J/cm2
[7] = low dose PDT 5J/cm2, 15 mg/kg δ-ALA
[8] = of the 4 mice which developed signs of severe disease

Structure (SMILES): NCC(=O)CCC(=O)O [δ-ALA, 5-aminolevulinic acid]
- expression index IL-1Ra (IL-1Ra; [5]): 4.54±1.21
- expression index IL-1Ra (IL-1Ra; [6]): 0.94±0.08
- expression index IL-1Ra (IL-1Ra; [7]): 1.14±0.11
- signs of photosensitivity or damage of the mucosa ([1]; any of the animals): No signs of photosensitivity or damage of the mucosa was observed
- endoscopic severity index after PDT ([1]; mice that could be followed up by colonoscopy): improved significantly
- mice cured by PDT [1, 8]: 2 mice
- mice with improved clinical signs after PDT [1, 8]: one
- mice without clinical response ([1]; one of the 4 mice which developed signs of severe disease): 25%
- signs of skin phototoxicity ([2]; all experimental groups): no signs of skin phototoxicity were observed
- histology of colon (microscopic changes) ([2]; all groups other than high dose PDT): no microscopic changes were observed
- exterior aspect of mice (quality of life) ([2]; all groups other than high dose PDT (low dose PDT, δ-ALA only), 74 h observation): the exterior aspect of mice remained unchanged
- changes in the blood formula ([2]; any of the experimental conditions, 0 and 74 h): No significant changes in the blood formula were seen
- inflammatory cells by anti-MAC immunostaining ([2]; high dose PDT, compared to naïve mice): an increase of inflammatory cells was observed
- inflammatory cells by anti-MAC immunostaining ([2]; low dose PDT): did not lead to an increase in inflammatory cells
- macroscopic aspect of colon ([2]; low dose PDT, 74 hours): the colon appeared macroscopically normal
- expression index IFN-γ after low dose PDT (IFN-γ [3]; 15 mg/kg δ-ALA, 10 J/cm^2, versus disease control group (FIG. 2)): decreased significantly
- decrease of the expression of pro-inflammatory marker IFN-γ (IFN-γ [3]; 10 J/cm^2, 15 mg/kg δ-ALA, compared to "colonoscopy" mice, deduced from FIG. 2): 73%
- expression index IFN-γ (IFN-γ [4]; [5]): 5.36±1.67
- expression index IFN-γ (IFN-γ [4]; [6]): 0.93±0.09
- expression index IFN-γ (IFN-γ [4]; [7]): 1.92±0.50
